Holding throughout (type): cell-based
In experiment [1] the test system is healthy human neonatal fibroblasts. Kind of experiment: Real-time PCR of undifferentiated stem cell and three germ layer marker genes in neonatal fibroblast spheroids (96-well round-bottom). The following applies: day 20 of 3D spheroid culture, coated 96-well round-bottom; 2D control without supplement day 0 = 1.0; ΔΔCt. As for the experimental part:
(§1) To observe the spheroid formation and stem cell induction in healthy human neonatal fibroblasts over time, culture was performed by using a 96-well round-bottom culture vessel. An aqueous solution of the polypeptide represented by formula (1) (0.125%) (cell culture supplement) was added to a commercial polystyrene-made 96-well round-bottom culture vessel (Nunclon Delta 96U Bottom, Thermo Fisher Scientific) at 100 μL/well and allowed to stand at 4° C. for 24 hours. Thereafter, the excess cell culture supplement was removed, and the remaining solution was dried in a dryer at 37° C. for 96 hours to complete coating treatment with the cell culture supplement. Fibroblasts were maintained and cultured in a serum-free medium (Promo Cell; fibroblast basal medium, basic-FGF 5 ng/ml and insulin 2.5 μg/mL). The fibroblasts floating in the medium were seeded in the culture vessel coated with the cell culture supplement at 4×10^4 cells/well/100 μL and cultured at 37° C. under 5% CO2 conditions.
To investigate the expression mechanism of the undifferentiated stem cell marker genes found in Example 1 over time, real-time PCR analysis was performed by using the following three transcription factors: SOX2 (sex-determining region Y-box 2), OCT4 (octamer binding transcription factor 4), and NANOG (homeodomain transcription factor), and a TaqMan gene expression assay probe (B-actin) as an endogenous control gene. In the expression analysis, relative quantification was performed according to the ΔΔCt method (Delta Delta Ct method) (FIG. 8).
To determine whether stem cells induced from fibroblasts have a differentiation-inducing ability, analysis was conducted on the expression of genes associated with the three germ layers that indicate the early stages of differentiation. Fibroblasts were cultured in the same type of a 96-well culture vessel treated with the cell culture supplement as above according to the same method. Real-time PCR analysis was performed by using the following expression detection probes for the genes associated with differentiation into the three germ layers: SOX17 (sex-determining region Y-box 17; endoderm), HAND1 (Heart-and neural crest derivatives-expressed protein-1; mesoderm), and MAP2 (microtubule associated protein 2: ectoderm), and a TaqMan gene expression assay probe (ß-actin) as the endogenous control gene. In the expression analysis, relative quantification was performed according to the ΔΔCt method (Delta Delta Ct method) (FIG. 9).

Experiment [2] concerns healthy human adult mammary gland epithelial cells. Kind of experiment: Spheroid culture of healthy human adult mammary gland epithelial cells, microscope observation. The following applies: culture vessel coated with 0.125% solution; day 2 to day 20; uncoated control grew 2D. Here is the method: An aqueous solution of the polypeptide represented by formula (1) (0.125%) (cell culture supplement) was added to a commercial polystyrene-made 6-well flat-bottom culture vessel (CellBIND, Corning) and to a polystyrene-made 96-well round-bottom culture vessel (Nunclon Delta 96U Bottom, Thermo Fisher Scientific) and allowed to stand at 4° C. for 24 hours.
The cell culture supplement solution was then removed and the coated cell culture supplement was dried in a dryer at 37° C. for 96 hours to complete the cell culture supplement coating process. Healthy human adult mammary gland epithelial cells (ATCC PCS-600-010, primary mammary epithelial cells, referred to as “mammary gland epithelial cells” below) were maintained and cultured in a serum-free medium (Promo Cell; mammary epithelial cell growth medium, EGF 5 ng/ml, and insulin 2.5 μg/mL). In the culture vessels coated with the cell culture supplement, the mammary gland epithelial cells floating in 2 mL of the medium were seeded at 2×10^6 cells/well (6-well flat-bottom culture vessel) and the mammary gland epithelial cells floating in 100 μL of the medium were seeded at 2×10^4 cells/well (96-well round-bottom culture vessel). The cells of each culture vessel were cultured at 37° C. under 5% CO2 conditions. […]

Experiment [3] relates to healthy human neonatal fibroblasts. Kind of experiment: Anti-NANOG immunostaining of cells dissociated from neonatal fibroblast spheroids. The following applies: spheroids day 20 dissociated with Accutase, 24 h further culture; nuclei of some cells, majority NANOG-negative. As for the experimental part:
To detect stem cells induced in fibroblast spheroids, immunostaining with a fluorescent dye-labeled antibody was used, and stem cells in the spheroid-forming cells were detected. An aqueous solution of the polypeptide represented by formula (1) (0.125%) (cell culture supplement) was added to a commercial polystyrene-made 96-well round-bottom culture vessel (Nunclon Delta 96U Bottom, Thermo Fisher Scientific) at 100 μL/well to complete coating treatment with the cell culture supplement in the same manner as in Example 2. Fibroblasts were maintained and cultured in a serum-free medium (Fujifilm Wako Pure Chemical Corporation, DMEM/F12 medium, human serum albumin recombinant 0.5 mg/mL, human transferrin recombinant 10 μg/mL, basic-FGF 5 ng/ml, and insulin 2.5 μg/mL). Fibroblasts floating in the medium were seeded in the culture vessel coated with the cell culture supplement at 2×10^4 cells/well/100 μL and cultured at 37° C. under 5% CO2 conditions. On day 20 after the start of culture, spheroids were aseptically collected from the 96-well round-bottom culture vessel. […] For the fluorescence-labeled antibody, NL493 fluorescent dye-labeled anti-NANOG antibody (fluorescent green, R&D systems) was used, and observation was performed with a fluorescence microscope.

The test system is the same in experiment [4]. Kind of experiment: Spheroid culture of healthy human neonatal fibroblasts in coated 96-well round-bottom vessel, microscope observation. The following applies: PS 96-well round-bottom vessel coated with 0.125% solution; 4×10^4 cells/well. As for the experimental part:
as §1

Turning to “(Pro-Hyp-Gly)n [cell culture supplement]”, in experiment [1], the “HAND1 (mesoderm) gene expression level (increase vs control)” value was found to be 4.6 fold, the “MAP2 (ectoderm) gene expression level (increase vs control)” value came out at 24.2 fold, the “NANOG gene expression level (increase vs control)” value is 35.4 fold and the “OCT4 gene expression level (increase vs control)” value came out at 30.1 fold. Also, in experiment [1], the “SOX2 gene expression level (increase vs control)” value is on record as 144.0 fold and the “SOX17 (endoderm) gene expression level (increase vs control)” value worked out at 359.6 fold. Further, the spheroid formation entry in experiment [2] is recorded as “self-assembled to form spheroids”. Further, the “nuclear NANOG protein in cells dispersed from spheroids” value in experiment [3] is recorded as “strong NANOG antibody-positive green fluorescence”. Further, the spheroid formation entry in experiment [4] was “formed a single spheroid”.

(Values after patent US20240294881A1, “CELL CULTURE SUPPLEMENT FOR PRODUCING STEM CELLS, AND METHOD FOR PRODUCING STEM CELLS” (OPTICELL, INC, priority 2021, published 2024).)
